Reference: patent US20230047788A1, “COMPOSITIONS COMPRISING 5-CHOLESTEN-3, 25-DIOL, 3-SULFATE (25HC3S) OR PHARMACEUTICALLY ACCEPTABLE SALT THEREOF AND AT LEAST ONE CYCLIC OLIGOSACCHARIDE” (Virginia Commonwealth University, priority 2016, published 2023)

Assay: Effect of phosphate and borate buffers on chemical stability (% remaining, impurity profile), osmolality, pH and appearance of 25HC3S 30 mg/mL in 250 mg/mL HPBCD at 80°C and 60°C
Assay type: physicochemical
Set-up: First Order Rate Constant: unit not given beside the values
Protocol: A total of six 25HC3S formulations at 30 mg/mL in 250 mg/mL of 2-hydroxypropyl beta cyclodextrin (HPBCD) containing 10, 20, 50 and 100 mM phosphate buffers at pH 7.5 to 8.1 and 10 and 50 mM borate buffers at pH 9.4 were prepared for the stability study. The chemical stability (measured as % remaining of 25HC3S) and physical stability (osmolality, pH and appearance) of the formulations were monitored under accelerated conditions for up to 7 days at 80° C. and up to 29 days at 60° C.
Two stock solutions of phosphate buffer at 100 and 200 mM at pH 7.4 and 7.3, respectively and one borate buffer at 100 mM at pH 9.3 were prepared (Tables 22A and 22B) and used for 250 mg/mL HPBCD vehicles preparation (Table 23).
Approximately 1200 mg each of 25HC3S was weighed into 40 mL volumetric flasks and diluted to volume with the six HPBCD vehicles containing 10-100 mM phosphate buffers or 10 and 50 mM borate buffers, respectively (Table 24). The final concentration of 25HC3S was 30 mg/mL (wt/volume, without adjusting for API purity). Aliquots of 2 mL of each formulation were filled into 2 mL glass vials, stoppered and sealed for stability sample set-up at 60° C. and 80° C. to study the effect of phosphate buffer (pH 7.5-8.1) and borate buffer (pH 9.4) at various buffer concentrations on the stability of the HPBCD formulations (Table 26).
A 0.5 mL of sample solution was transferred to a 25 mL volumetric flask and QS'ed with methanol/water=95/5 for 25HC3S concentration determination by HPLC. The % remaining of 25HC3S was calculated as follows: […]

[1] = 250 mg/mL HPBCD, 10 mM borate, 80°C, day 0
[2] = 250 mg/mL HPBCD, 10 mM borate, 80°C, day 1
[3] = 250 mg/mL HPBCD, 10 mM borate, 80°C, day 2
[4] = 250 mg/mL HPBCD, 10 mM borate, 80°C, day 3
[5] = 250 mg/mL HPBCD, 10 mM borate, 80°C, day 7
[6] = 250 mg/mL HPBCD, 10 mM borate, day 0
[7] = 250 mg/mL HPBCD, 10 mM phosphate, 80°C, day 0
[8] = 250 mg/mL HPBCD, 10 mM phosphate, 80°C, day 1
[9] = 250 mg/mL HPBCD, 10 mM phosphate, 80°C, day 2
[10] = 250 mg/mL HPBCD, 10 mM phosphate, 80°C, day 3
[11] = 250 mg/mL HPBCD, 10 mM phosphate, 80°C, day 7
[12] = 250 mg/mL HPBCD, 10 mM phosphate, day 0
[13] = 250 mg/mL HPBCD, 20 mM phosphate, 80°C, day 0
[14] = 250 mg/mL HPBCD, 20 mM phosphate, 80°C, day 1
[15] = 250 mg/mL HPBCD, 20 mM phosphate, 80°C, day 2
[16] = 250 mg/mL HPBCD, 20 mM phosphate, 80°C, day 3
[17] = 250 mg/mL HPBCD, 20 mM phosphate, 80°C, day 7
[18] = 250 mg/mL HPBCD, 20 mM phosphate, day 0
[19] = 250 mg/mL HPBCD, 50 mM borate, 80°C, day 0
[20] = 250 mg/mL HPBCD, 50 mM borate, 80°C, day 1
[21] = 250 mg/mL HPBCD, 50 mM borate, 80°C, day 2
[22] = 250 mg/mL HPBCD, 50 mM borate, 80°C, day 3
[23] = 250 mg/mL HPBCD, 50 mM borate, 80°C, day 7
[24] = 250 mg/mL HPBCD, 50 mM borate, day 0
[25] = 250 mg/mL HPBCD, 50 mM phosphate, 80°C, day 0
[26] = 250 mg/mL HPBCD, 50 mM phosphate, 80°C, day 1
[27] = 250 mg/mL HPBCD, 50 mM phosphate, 80°C, day 2
[28] = 250 mg/mL HPBCD, 50 mM phosphate, 80°C, day 3
[29] = 250 mg/mL HPBCD, 50 mM phosphate, 80°C, day 7
[30] = 250 mg/mL HPBCD, 50 mM phosphate, day 0
[31] = 250 mg/mL HPBCD, 100 mM phosphate, 80°C, day 0
[32] = 250 mg/mL HPBCD, 100 mM phosphate, 80°C, day 1
[33] = 250 mg/mL HPBCD, 100 mM phosphate, 80°C, day 2
[34] = 250 mg/mL HPBCD, 100 mM phosphate, 80°C, day 3
[35] = 250 mg/mL HPBCD, 100 mM phosphate, 80°C, day 7
[36] = 250 mg/mL HPBCD, 100 mM phosphate, day 0

## C[C@H](CCCC(C)(C)O)[C@H]1CC[C@H]2[C@@H]3CC=C4C[C@@H](OS(=O)(=O)[O-])CC[C@]4(C)[C@H]3CC[C@]12C.[Na+] [25HC3S, 5-cholesten-3, 25-diol, 3-sulfate]
10 mM borate, 80°C
  Calculated t90: 2.0 days
  First Order Rate Constant: −0.0463
  Intercept (first order fit of % remaining): 98.9
10 mM phosphate, 80°C
  Calculated t90: 2.3 days
  First Order Rate Constant: −0.0462
  Intercept (first order fit of % remaining): 99.9
20 mM phosphate, 80°C
  Calculated t90: 2.2 days
  First Order Rate Constant: −0.0437
  Intercept (first order fit of % remaining): 99.2
50 mM borate, 80°C
  Calculated t90: 1.9 days
  First Order Rate Constant: −0.0484
  Intercept (first order fit of % remaining): 98.8
50 mM phosphate, 80°C
  Calculated t90: 2.2 days
  First Order Rate Constant: −0.0451
  Intercept (first order fit of % remaining): 99.5
100 mM phosphate, 80°C
  Calculated t90: 2.2 days
  First Order Rate Constant: −0.0430
  Intercept (first order fit of % remaining): 99
250 mg/mL HPBCD, 10 mM borate, 60°C, 29 days
  pH: 8.90
[1]
  25HC3S concentration: 28.58 mg/mL
  % Remaining of 25HC3S: 100.0%
[2]
  25HC3S concentration: 26.90 mg/mL
  % Remaining of 25HC3S: 94.1%
  Osmolality: 318 mmol/kg
  pH: 9.12
[3]
  25HC3S concentration: 25.63 mg/mL
  % Remaining of 25HC3S: 89.7%
  Osmolality: 323 mmol/kg
  pH: 8.92
[4]
  25HC3S concentration: 24.40 mg/mL
  % Remaining of 25HC3S: 85.4%
  Osmolality: 328 mmol/kg
  pH: 8.60
[5]
  25HC3S concentration: 20.55 mg/mL
  % Remaining of 25HC3S: 71.9%
  Appearance: light brown
  Osmolality: 352 mmol/kg
  pH: 7.06
[6]
  Osmolality: 316 mmol/kg
  pH: 9.36
250 mg/mL HPBCD, 10 mM phosphate, 60°C, 29 days
  pH: 7.04
[7]
  25HC3S concentration: 28.45 mg/mL
  % Remaining of 25HC3S: 100.0%
[8]
  25HC3S concentration: 27.03 mg/mL
  % Remaining of 25HC3S: 95.0%
  Osmolality: 291 mmol/kg
  pH: 7.28
[9]
  25HC3S concentration: 26.00 mg/mL
  % Remaining of 25HC3S: 91.4%
  Osmolality: 286 mmol/kg
  pH: 6.82
[10]
  25HC3S concentration: 24.70 mg/mL
  % Remaining of 25HC3S: 86.8%
  Osmolality: 294 mmol/kg
  pH: 6.34
[11]
  25HC3S concentration: 20.58 mg/mL
  % Remaining of 25HC3S: 72.3%
  Osmolality: 300 mmol/kg
  pH: 2.67
[12]
  Osmolality: 273 mmol/kg
  pH: 8.09
250 mg/mL HPBCD, 20 mM phosphate, 60°C, 29 days
  pH: 7.17
[13]
  25HC3S concentration: 28.63 mg/mL
  % Remaining of 25HC3S: 100.0%
[14]
  25HC3S concentration: 27.03 mg/mL
  % Remaining of 25HC3S: 94.4%
  Osmolality: 325 mmol/kg
  pH: 7.35
[15]
  25HC3S concentration: 26.05 mg/mL
  % Remaining of 25HC3S: 91.0%
  Osmolality: 328 mmol/kg
  pH: 7.13
[16]
  25HC3S concentration: 24.70 mg/mL
  % Remaining of 25HC3S: 86.3%
  Osmolality: 328 mmol/kg
  pH: 6.80
[17]
  25HC3S concentration: 21.00 mg/mL
  % Remaining of 25HC3S: 73.3%
  Osmolality: 354 mmol/kg
  pH: 5.75
[18]
  Osmolality: 311 mmol/kg
  pH: 7.81
250 mg/mL HPBCD, 50 mM borate, 60°C, 29 days
  pH: 9.19
[19]
  25HC3S concentration: 28.50 mg/mL
  % Remaining of 25HC3S: 100.0%
[20]
  25HC3S concentration: 26.78 mg/mL
  % Remaining of 25HC3S: 94.0%
  Osmolality: 527 mmol/kg
  pH: 9.34
[21]
  25HC3S concentration: 25.45 mg/mL
  % Remaining of 25HC3S: 89.3%
  Osmolality: 534 mmol/kg
  pH: 9.28
[22]
  25HC3S concentration: 24.05 mg/mL
  % Remaining of 25HC3S: 84.4%
  Osmolality: 535 mmol/kg
  pH: 9.12
[23]
  25HC3S concentration: 20.20 mg/mL
  % Remaining of 25HC3S: 70.9%
  Appearance: brown clear solutions
  Osmolality: 569 mmol/kg
  pH: 8.92
[24]
  Osmolality: 524 mmol/kg
  pH: 9.40
250 mg/mL HPBCD, 50 mM phosphate, 60°C, 29 days
  pH: 7.28
[25]
  25HC3S concentration: 28.50 mg/mL
  % Remaining of 25HC3S: 100.0%
[26]
  25HC3S concentration: 27.13 mg/mL
  % Remaining of 25HC3S: 95.2%
  Osmolality: 427 mmol/kg
  pH: 7.42
[27]
  25HC3S concentration: 25.83 mg/mL
  % Remaining of 25HC3S: 90.6%
  Osmolality: 432 mmol/kg
  pH: 7.29
[28]
  25HC3S concentration: 24.65 mg/mL
  % Remaining of 25HC3S: 86.5%
  Osmolality: 423 mmol/kg
  pH: 7.08
[29]
  25HC3S concentration: 20.75 mg/mL
  % Remaining of 25HC3S: 72.8%
  Osmolality: 453 mmol/kg
  pH: 6.73
[30]
  Osmolality: 415 mmol/kg
  pH: 7.63
250 mg/mL HPBCD, 100 mM phosphate, 60°C, 29 days
  pH: 7.28
[31]
  25HC3S concentration: 28.58 mg/mL
  % Remaining of 25HC3S: 100.0%
[32]
  25HC3S concentration: 27.10 mg/mL
  % Remaining of 25HC3S: 94.8%
  Osmolality: 589 mmol/kg
  pH: 7.42
[33]
  25HC3S concentration: 25.83 mg/mL
  % Remaining of 25HC3S: 90.4%
  Osmolality: 585 mmol/kg
  pH: 7.33
[34]
  25HC3S concentration: 24.65 mg/mL
  % Remaining of 25HC3S: 86.2%
  Osmolality: 589 mmol/kg
  pH: 7.15
[35]
  25HC3S concentration: 21.05 mg/mL
  % Remaining of 25HC3S: 73.7%
  Appearance: brown clear solution
  Osmolality: 616 mmol/kg
  pH: 6.93
[36]
  Osmolality: 573 mmol/kg
  pH: 7.53
250 mg/mL HPBCD, 10, 20 and 50 mM phosphate, 80°C, up to 7 days
  Appearance: colorless clear solutions
10 or 50 mM borate formulations, 80°C up to 7 days
  appearance when removed from 80°C oven and cooled to room temperature: a white precipitate was observed
60° C., day 0, Borate 10 mM
  25HC3S: 28.58 mg/mL
  % Peak Area 25-Hydroxy Cholesterol at RRT = 3.67: 0.0 % Peak Area
  % Peak Area 25HC3S: 99.7 % Peak Area
  % Peak Area Major Thermal Degradant at RRT = 2.64: 0.3 % Peak Area
  % Remaining of 25HC3S: 100.0%
  Osmolality: 316 mmol/kg
  pH: 9.36
60° C., day 0, Borate 50 mM
  25HC3S: 28.50 mg/mL
  % Peak Area 25-Hydroxy Cholesterol at RRT = 3.67: 0.0 % Peak Area
  % Peak Area 25HC3S: 99.9 % Peak Area
  % Peak Area Major Thermal Degradant at RRT = 2.64: 0.2 % Peak Area
  % Remaining of 25HC3S: 100.0%
  Osmolality: 524 mmol/kg
